Read-outs that look alike come from different tables or passages of the source.
Target: full length MPS1 (Homo sapiens (Human), UniProt P33981)
Assay: Measurement of inhibition of MPS1 kinase (Caliper EZ reader mobility shift assay)
Format: biochemical
Procedure: Measurement of Inhibition of MPS1 Kinase
(5 μM), ATP(10 μM), either DMSO (1% v/v) or the test compound (in the range 0.25 nM-100 μM in 1% DMSO) and assay buffer (50 mM HEPES (pH 7.0), 0.02% NaN3, 0.01% BSA, 0.1 mM Orthovandate, […], 1 μM DTT, Roche protease inhibitor). The reaction was carried out for 60 min at room temperature and stopped by the addition of buffer (10 μl) containing 20 mM EDTA, 0.05% (v/v) Brij-35, in 0.1M HEPES-buffered saline (Free acid, Sigma, UK). The plate was read on a Caliper EZ reader II (Caliper Life Sciences).
The reader provides a Software package (‘Reviewer’) which converts the peak heights into % conversion by measuring both product and substrate peak and also allows selection of control well which represent 0% and 100% inhibition respectively. The % inhibition of the compounds is calculated relative to the means of selected control wells. IC50s are determined by testing the compounds at a range of concentrations from 0.25 nM-100 μM. The % inhibitions at each concentration are then fitted to a 4 parameter logistic fit: y=(a+((b−a)/(1+((c/x^d)))) where a=asym min, b=asym max, c=IC50 and d=hill coefficient

[1] = full length MPS1 12.5 nM or 3 nM, H236 peptide 5 μM, ATP 10 μM, 60 min at room temperature, read-out: MPS1 IC50

Chain of full length MPS1 (P33981 whole entry): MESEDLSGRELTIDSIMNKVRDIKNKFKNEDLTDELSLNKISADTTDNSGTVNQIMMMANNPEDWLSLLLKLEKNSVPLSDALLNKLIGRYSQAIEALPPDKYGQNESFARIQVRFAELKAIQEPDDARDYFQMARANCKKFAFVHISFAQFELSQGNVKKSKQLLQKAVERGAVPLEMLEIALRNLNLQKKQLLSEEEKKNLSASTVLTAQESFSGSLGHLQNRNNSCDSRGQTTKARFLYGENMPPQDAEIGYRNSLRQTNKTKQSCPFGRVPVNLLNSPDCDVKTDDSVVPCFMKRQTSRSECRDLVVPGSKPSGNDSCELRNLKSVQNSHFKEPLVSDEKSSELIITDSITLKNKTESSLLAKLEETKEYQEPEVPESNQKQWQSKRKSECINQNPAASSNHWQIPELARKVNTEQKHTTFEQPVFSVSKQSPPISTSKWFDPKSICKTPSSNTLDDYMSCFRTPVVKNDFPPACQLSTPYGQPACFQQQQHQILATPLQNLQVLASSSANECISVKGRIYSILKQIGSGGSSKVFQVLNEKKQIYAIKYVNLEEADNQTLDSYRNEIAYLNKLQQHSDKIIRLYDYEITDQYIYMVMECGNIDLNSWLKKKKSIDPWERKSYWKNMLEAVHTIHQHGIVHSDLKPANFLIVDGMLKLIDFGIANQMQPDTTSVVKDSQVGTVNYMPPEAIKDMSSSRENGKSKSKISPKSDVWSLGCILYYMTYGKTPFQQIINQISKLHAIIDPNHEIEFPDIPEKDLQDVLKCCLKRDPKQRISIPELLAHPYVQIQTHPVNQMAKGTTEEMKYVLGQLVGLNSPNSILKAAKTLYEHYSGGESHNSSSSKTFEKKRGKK

Compound	IC50 [nM]	IC50 [1] [nM]
COc1cc(-c2cnc(C)n2C)ccc1Nc1cc2cc(-c3cnn(CC(O)CO)c3)ccc2cn1 (racemic) [Example 109, Racemic 3-(4-(3-((4-(1,2-Dimethyl-1H-imidazol-5-yl)-2-methoxyphenyl)amino)isoquinolin-6-yl)-1H-pyrazol-1-yl)propane-1,2-diol]	3	
COCCn1cc(-c2ccc3cnc(Nc4ccc(-c5cnn(C)c5CO)cc4OC)cc3c2)cn1 [Example 32, (4-(3-Methoxy-4-((6-(1-(2-methoxyethyl)-1H-pyrazol-4-yl)isoquinolin-3-yl)amino)phenyl)-1-methyl-1H-pyrazol-5-yl)methanol]		3
CNC(=O)c1ccc2cnc(Nc3ccc(-c4cnn(C)c4)cc3OC)cc2n1 [Example 108, 7-(2-Methoxy-4-(1-methyl-1H-pyrazol-4-yl)phenylamino)-N-methyl-1,6-naphthyridine-2-carboxamide]		7

Source: patent publication US10188642B2, “Pharmacologically active compounds” (Cancer Research Technology Limited, priority 2012, dated 2019)
